Tests used:
[1] = Skin permeation of CBD formulation in Franz-type diffusion cell; type: in vitro ADME
Method: Dermatomed skin from a single donor was mounted in a Franz-type diffusion cell (0.55 cm^2 receptor fluid exposure surface area) and dosed with 5 ul of CBD formulated in an mixture of a volatile solvent (hexylmethyldisiloxane/polymethylsiloxane—93% w/w), and residual solvent (arlamol E—2% w/w) at a concentration of 5.0% (w/w; 35.5 mg/ml). Following dosing, receptor phase samples were collected at 4, 10, 24 and 48 hours; after which the study was terminated.
The residual formulation was removed by tape stripping and the epidermis and dermis separated by blunt dissection. The levels of CBD in the epidermis, dermis, and receptor fluid samples were then analyzed using a bioanalytical method with LC-MS/MS detection.

[2] = biological target: human vanilloid receptor type 1 (VR1) (Homo sapiens, UniProt Q8NER1); details: in vitro; cited from earlier work
Sequence of human vanilloid receptor type 1 (VR1) (Q8NER1 whole entry): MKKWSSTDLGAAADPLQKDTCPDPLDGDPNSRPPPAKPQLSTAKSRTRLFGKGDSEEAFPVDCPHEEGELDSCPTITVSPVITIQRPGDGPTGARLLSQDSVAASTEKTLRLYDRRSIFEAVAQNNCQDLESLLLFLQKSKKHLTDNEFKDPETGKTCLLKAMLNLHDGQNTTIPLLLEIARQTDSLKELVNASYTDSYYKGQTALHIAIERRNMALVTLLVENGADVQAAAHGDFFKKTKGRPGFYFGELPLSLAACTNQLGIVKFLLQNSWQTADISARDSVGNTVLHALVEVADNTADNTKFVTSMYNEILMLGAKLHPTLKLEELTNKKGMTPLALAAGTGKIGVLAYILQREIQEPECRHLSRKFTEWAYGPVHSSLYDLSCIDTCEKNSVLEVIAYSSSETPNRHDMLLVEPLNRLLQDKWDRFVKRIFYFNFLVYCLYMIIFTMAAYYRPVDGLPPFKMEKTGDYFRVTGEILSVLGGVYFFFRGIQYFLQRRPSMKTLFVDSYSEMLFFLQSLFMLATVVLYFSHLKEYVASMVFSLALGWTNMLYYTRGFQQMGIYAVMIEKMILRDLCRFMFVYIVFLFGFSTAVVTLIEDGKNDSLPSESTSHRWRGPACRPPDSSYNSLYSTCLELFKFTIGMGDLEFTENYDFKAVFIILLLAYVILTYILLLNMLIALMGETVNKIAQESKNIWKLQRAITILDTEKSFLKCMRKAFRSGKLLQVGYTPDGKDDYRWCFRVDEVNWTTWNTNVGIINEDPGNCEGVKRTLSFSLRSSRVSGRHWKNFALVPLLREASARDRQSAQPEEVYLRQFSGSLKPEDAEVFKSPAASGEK

anandamide = details: in vitro; cited from earlier work
sensitized guinea-pigs = details: intravenous administration; cited from earlier work
rats = details: injected into rats; cited from earlier work
[3] = 5.0% w/w CBD formulation, 48-hour period
[4] = 5 ul of 5.0% w/w CBD formulation, over the 48-hour exposure period
[5] = following application of CBD mixture, 48 hours

C=C(C)C1CCC(C)=CC1c1c(O)cc(CCCCC)cc1O (centres unmarked) [CBD, 2-[3-methyl-6-(1-methylethenyl)-2-cyclohexen-1-yl]-5-pentyl-1,3-benzenediol]
dermal deposition of CBD [1, 3]: 4.54 % of the applied dose
epidermal deposition of CBD [1, 3]: 13.17 % of the applied dose
CBD in the receptor phase (skin permeation), amount per area [1, 4]: < 278 ng/cm^2
CBD in the receptor phase (skin permeation), percent of applied dose [1, 4]: less than 0.081%
dermis concentration per area [1, 5]: 8,408 ng/cm^2
dermis concentration per tissue weight [1, 5]: 1,933 ng/g of tissue
dermis concentration per volume [1, 5]: ~1,933 ng/mL
effect on human vanilloid receptor type 1 (VR1) [2]: stimulate
effect on anandamide (anandamide): inhibit
effect on airway obstruction (sensitized guinea-pigs): reduced airway obstruction
effect on cardiac inflammation (rats): attenuated cardiac inflammation

Reference: US11896560B2, “Cannabinoid dosing regime for dermatitis and inflammatory skin conditions” (Botanix Pharmaceuticals LTD, priority 2018, dated 2024)
